Laboratory results published in patent publication US12084443B2, “Process of preparing a PD-1/PD-L1 inhibitor” (Incyte Corporation, priority 2020, dated 2024).

Target: T1, PD-1/PD-L1 protein/protein interaction (Homo sapiens, UniProt Q9NZQ7)
T1 construct: Recombinant human PD-L1 protein (19-238) with a His-tag at the C-terminus; purchased AcroBiosystems PD1-H5229 (PD-L1); PD1-H5257 (PD-1)
Experiment: PD-1/PD-L1 Homogeneous Time-Resolved Fluorescence (HTRF) binding assay
Details: recombinant human PD-1 (25-167) Fc tag and PD-L1 (19-238) His-tag, 25° C., PBS pH 7.4
Method: Example A. PD-1/PD-L1 Homogeneous Time-Resolved Fluorescence (HTRF) Binding Assay The assays were conducted in a standard black 384-well polystyrene plate with a final volume of 20 μL. Inhibitors were first serially diluted in DMSO and then added to the plate wells before the addition of other reaction components. The final concentration of DMSO in the assay was 1%. The assays were carried out at 25° C. in the PBS buffer (pH 7.4) with 0.05% Tween-20 and 0.1% BSA. Recombinant human PD-L1 protein (19-238) with a His-tag at the C-terminus was purchased from AcroBiosystems (PD1-H5229). Recombinant human PD-1 protein (25-167) with Fc tag at the C-terminus was also purchased from AcroBiosystems (PD1-H5257). PD-L1 and PD-1 proteins were diluted in the assay buffer and 10 μL was added to the plate well. Plates were centrifuged and proteins were preincubated with inhibitors for 40 minutes. The incubation was followed by the addition of 10 μL of HTRF detection buffer supplemented with Europium cryptate-labeled anti-human IgG (PerkinElmer-AD0212) specific for Fc and anti-His antibody conjugated to SureLight®-Allophycocyanin (APC, PerkinElmer-AD0059H). After centrifugation, the plate was incubated at 25° C. for 60 min. before reading on a PHERAstar FS plate reader (665 nm/620 nm ratio). […]

T1 sequence (Q9NZQ7 19-238): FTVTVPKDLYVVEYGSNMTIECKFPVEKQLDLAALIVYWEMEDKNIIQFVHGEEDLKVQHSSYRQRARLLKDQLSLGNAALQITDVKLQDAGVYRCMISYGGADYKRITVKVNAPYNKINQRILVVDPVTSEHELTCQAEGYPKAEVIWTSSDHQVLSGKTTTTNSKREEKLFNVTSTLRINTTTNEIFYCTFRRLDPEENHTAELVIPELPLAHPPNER

IC50: ≤ 10 nM
Compound: Cc1c(Nc2nccc3cc(CN4CC[C@@H](O)C4)cnc23)cccc1-c1cccc(-c2nc3cc(CN4CC[C@@H](C(=O)O)C4)cc(C#N)c3o2)c1C [Compound 1, (R)-1-((7-cyano-2-(3′-((3-(((R)-3-hydroxypyrrolidin-1-yl)methyl)-1,7-naphthyridin-8-yl)amino)-2,2′-dimethyl-[1,1′-biphenyl]-3-yl)benzo[d]oxazol-5-yl)methyl)pyrrolidine-3-carboxylic acid]
